Here are results for 2 compounds from patent publication US20040167217A1, “Neuroprotective effects of polyphenolic compounds” (priority 2003, published 2004).

The test system of one data set is heme oxygenase. As to the kind of experiment: Heme oxygenase activity assay in astrocytes. The format is cell-based. As to the method: Type 1 astrocytes (DI TNC1) were purchased from the American Type Culture Collection (Manassas, VA) and cultured in Dulbecco's modified Eagle's medium containing 4.5 g/l glucose, 2 mM glutamine, 100 units/ ml penicillin, and 0.1 mg/ml streptomycin and supplemented with 10% fetal bovine serum. Cells were grown in 75-cm^2 flasks and maintained at 37° C. in a humidified atmosphere of air and 5% CO2. Confluent cells were exposed to various concentrations of curcumin, CAPE, or Curcumin-95. After each treatment (6 or 24 h), cells were harvested for the determination of heme oxygenase activity, HO-1 protein expression, and intracellular glutathione. Astrocytes growing in 24 wells were exposed to polyphenolic compounds, and cell viability was determined at 24 h. Heme oxygenase activity was determined at the end of each treatment as described previously by Foresti, et al.^18 and Motterlini, et al.^19 Briefly, microsomes from harvested cells were added to a reaction mixture containing NADPH, glucose-6-phosphate dehydrogenase, rat liver cytosol as a source of biliverdin reductase, and the substrate hemin. The reaction mixture was incubated in the dark at 37° C. for 1 h and was terminated by the addition of 1 ml of chloroform. After vigorous vortex and centrifugation, the extracted bilirubin in the chloroform layer was measured by the difference in absorbance between 464 and 530 nm (ε=40 mM^−1cm^−1).

Data set [1] relates to Type 1 astrocytes (DI TNC1). As to the kind of experiment: Cell viability of astrocytes, Alamar Blue. The data set is classed as cell-based. The settings on record: 24 h; for cytotoxic action in the presence of NAC: 1 mM NAC, curcumin 100 μM, CAPE 50 μM and 100 μM; for cell viability and cell morphology: concentration not exceeding 30 μM. On the procedure:
Type 1 astrocytes (DI TNC1) were purchased from the American Type Culture Collection (Manassas, VA) and cultured in Dulbecco's modified Eagle's medium containing 4.5 g/l glucose, 2 mM glutamine, 100 units/ ml penicillin, and 0.1 mg/ml streptomycin and supplemented with 10% fetal bovine serum. Cells were grown in 75-cm^2 flasks and maintained at 37° C. in a humidified atmosphere of air and 5% CO2. Confluent cells were exposed to various concentrations of curcumin, CAPE, or Curcumin-95. After each treatment (6 or 24 h), cells were harvested for the determination of heme oxygenase activity, HO-1 protein expression, and intracellular glutathione. Astrocytes growing in 24 wells were exposed to polyphenolic compounds, and cell viability was determined at 24 h. Astrocytes were exposed to curcumin or CAPE for the indicated times, and cell viability was assessed with the use of an Alamar Blue assay according to manufacturer's instructions (Serotec; Oxford, UK) as reported previously^11. At the end of each treatment, cells were washed twice and incubated for an additional 5 h in complete medium containing 1% Alamar Blue solution. Optical density in each sample was measured using a plate reader (Molecular Devices; Crawley, UK). The intensity of the color developed in the medium is proportional to the viability of cells, which is calculated as the difference in absorbance between 570 and 600 nm and expressed as percentage of control.
For orientation: The colour change of resazurin is a common sign of viable cells or microbes.

For data set [2], the system named is cerebellar granule cells. The experiment in a line: Oligonucleosome formation (cell death detection ELISA), serum deprivation. The format is cell-based, rat. To be noted: for apoptosis (oligonucleosome formation) induced by the absence of FCS: curcumin 1, 5, 10, 25 and 50 μM. On the procedure: (§1) Primary cultures of cortical neurons and cerebellar granule cells were prepared. In brief, cortical neurons were prepared from fetal brain from 17-day pregnant rat and cerebellar granule cells from 8-day old rats. Brain tissues were dissociated through trypsinization in 0.025% trypsin solution and trituration. Dissociated cells were collected through centrifugation and resuspended in standard medium containing: basal Eagle's medium containing 10% fetal bovine serum (FCS), 2 mM glutamine, genatmycin 0.05 mg/ml, and 25 mM KCI. Cells were plated at a density of 1.8×10^6 onto 35-mm dishes coated with 10 micrograms/ml ply-L-lysine.
(§2) To induce programmed cell death in […] granule cells, two different experimental well-established paradigms: serum deprivation and low K^+, were performed. In particular, neurons were cultured after their plating in serum free medium containing 25 mM KCI or in standard medium for 6 days and then agitating them in a medium containing 10% FCS and 5 mM KCI. In both of these paradigms, control cells were grown in medium containing 10% FCS and 25 mM KCI.
(§3) To induce apoptosis in cortical neurons, β-amyloid peptide (1-40), a molecule related to the pathogenesis of Alzheimer disease and a well known inducer of apoptosis was added.
A general note: ELISA stands for enzyme-linked immunosorbent assay.

In a further data set the test system is Male Wistar rats. The experiment in a line: Lethality after intracerebroventricular T-BuOOH. The data set is classed as in vivo, rat. As to the method:
Male Wistar rats, weighing 140-180 g, were used for all experiments. Ten animals per experimental group were pre-administrated with curcumin, suitably suspended in distilled water, at the dose of 50 mg/kg per day, through oral intubation, for 7 days, before an intracerebroventricular injection of T-butylhydroperoxide (T-BuOOH) 2 μl of a 70% solution of phosphate buffered saline (PBS)^16. Lethality was assessed after administration of T-BuOOH at time points: 0, 2, 6, 12, and 24 h, and was expressed as the percentage of survival relative to the lethality observed in T-BuOOH plus Tween/saline vehicle (control) treated animals (FIG. 11A). After 30h the surviving animals were sacrificed and their brains quickly removed to investigate lipid peroxide formation as an index of oxidative challenge in neurons.
Male Wistar rats, weighing 140-180 g, were used for all experiments. […] Lethality was assessed after administration of T-BuOOH at time points: 0, 2, 6, 12, and 24 h, and was expressed as the percentage of survival relative to the lethality observed in T-BuOOH plus Tween/saline vehicle (control) treated animals (FIG. 12A). […]

The test system of the next data set is cortical neurons. As to the kind of experiment: Oligonucleosome formation in cortical neurons exposed to β-amyloid peptide (1-40). The format is cell-based, rat. The settings on record: for apoptosis (oligonucleosome formation) induced by β-amyloid peptide (1-40): 20 μM β-amyloid peptide (1-40), parallel treatment. As to the method: as §1
An inhibitor of HO-1 activity may be used to determine whether or not the effects of the polyphenolic compounds or analogs thereof are induced through the heme oxygenase signaling pathway. To understand the relevance of the induction of the stress protein HO-1 on the neuroprotective effects afforded by curcumin we treated cortical neuron exposed to β-amyloid with curcumin ([…]) alone or in the presence of tinprotoporphirine IX (SnPP) 40 μM, a specific inhibitor of HO-1 activity. The same treatment was performed in cortical neurons exposed to GOX-induced cellular damage.

The subject of data set [3] is cerebellar granule cells. As to the kind of experiment: Oligonucleosome formation (cell death detection ELISA), low K+. To be noted: for apoptosis (oligonucleosome formation) induced by low extracellular K+: curcumin 1, 5, 10, 25 and 50 μM. The format is cell-based, rat. On the procedure:
as §1, §2, §3

[4] abbreviates: high concentrations (50 and 100 μM).

“Also recorded” adds a separate entry of the source.

Turning to `O=C(/C=C/c1ccc(O)c(O)c1)OCCc1ccccc1` [CAPE, Caffeic acid phenethyl ester], in the data set on heme oxygenase, the “concentration of maximal enzyme activation” value was determined as 30 µM. Moreover, the “enzyme activation and protein expression at 100 μM compared with 30 μM” value in the data set with heme oxygenase (100 μM) is reported as “significantly less effective”. Also, the heme oxygenase activity result in the data set with heme oxygenase (setting [4]) was “unable to stimulate an increase in heme oxygenase activity”; in the data set with heme oxygenase (low concentrations 15-50 μM), “substantial increase”. For the same compound, the “reduction in cell viability” value in data set [1] (50 μM) is 61%; in data set [1] (100 μM), 78%. The “cytotoxic action in the presence of NAC” value in data set [1] was “significantly attenuated the cytotoxic action”. Besides, the “cell viability and cell morphology” value in data set [1] is listed as “fully preserved”. Besides, the “concentration with strongest / most effective anti-apoptotic effect” value in the data set with cerebellar granule cells [2] and with cerebellar granule cells [3] was 25 µM in each case. Further, the “apoptosis (oligonucleosome formation) induced by the absence of FCS” value in the data set with cerebellar granule cells [2] is listed as “strong dose-dependent anti-apoptotic effect”. For the same compound, the “protection against T-BuOOH induced lethality” value in the data set with Male Wistar rats (20 mg/kg per day oral for 7 days before i.c.v. T-BuOOH) is on record as “marked protection”. Also, the “apoptosis (oligonucleosome formation) induced by β-amyloid peptide (1-40)” value with cortical neurons was “strong dose-dependent anti-apoptotic effect”. In the data set on cortical neurons (β-amyloid), the “concentration most effective in protecting from apoptosis” value was found to be 25 µM. In addition, the “apoptosis (oligonucleosome formation) induced by low extracellular K+” value with cerebellar granule cells [3] is “strong dose-dependent anti-apoptotic effect”.

`COc1cc(C=CC(=O)CC(=O)C=Cc2ccc(O)c(OC)c2)ccc1O` [curcumin, 1,7-bis[4-Hydroxy-3-methoxyphenyl]-1,6-heptadiene-3,5-dione]: the “increase in heme oxygenase activity” value in the data set on heme oxygenase (6 h, 15 μM) worked out at 7.4 fold; in the data set on heme oxygenase (6 h, 30 μM), 9.1 fold. Further, the heme oxygenase activity is 2461±194 pmol of bilirubin/mg of protein/h in the data set with heme oxygenase (6 h, 30 μM (control 247±5)); 2392±22 pmol of bilirubin/mg of protein/h in the data set on heme oxygenase (6 h, 30 μM plus 1 mM NAC); 492±30 pmol of bilirubin/mg of protein/h in the data set with heme oxygenase (6 h, 50 μM, absence of NAC); 752±78 pmol of bilirubin/mg of protein/h with heme oxygenase (6 h, 50 μM, presence of 1 mM NAC); “unable to stimulate an increase in heme oxygenase activity” in the data set on heme oxygenase (setting [4]). Moreover, the “effect of NAC on the increase in heme oxygenase activity” value in the data set on heme oxygenase (6 h, 15 and 30 μM, 1 mM NAC) is “not significantly affected by the presence of NAC”. Also, in the data set on heme oxygenase (higher concentrations (50-100 μM)), the “elevation in heme oxygenase activity” value worked out at 1.9 fold. Further, the “reduction in cell viability” value in data set [1] (50 μM) is on record as 20%; in data set [1] (100 μM), 63%. The “cytotoxic action in the presence of NAC” value in data set [1] is reported as “significantly attenuated the cytotoxic action”. The “cell viability and cell morphology” value in data set [1] is “fully preserved”. Further, the “concentration with strongest / most effective anti-apoptotic effect” value with cerebellar granule cells [2] and with cerebellar granule cells [3] was 25 µM in each case. Further, the “apoptosis (oligonucleosome formation) induced by the absence of FCS” value in the data set on cerebellar granule cells [2] was “significantly reduced apoptosis”. The “animals that died after T-BuOOH” value with Male Wistar rats (50 mg/kg per day oral for 7 days before i.c.v. T-BuOOH, over 24 h (T-BuOOH alone 60%)) turned out to be 20%. Further, the “apoptosis (oligonucleosome formation) induced by β-amyloid peptide (1-40)” value in the data set with cortical neurons is reported as “able to overcome much of the cellular damage caused by β-amyloid; also recorded: dramatically protect the cells against apoptosis”. The “apoptosis induced by β-amyloid in the presence of HO-1 inhibitor SnPP” value with cortical neurons (curcumin plus SnPP 40 μM) is recorded as “only able to partially reduce the apoptotic effects”. Besides, the “apoptosis (oligonucleosome formation) induced by low extracellular K+” value with cerebellar granule cells [3] is “significantly reduced apoptosis”.
